Laboratory results taken from patent US8637493B2, “Methods for treating glioblastoma” (University of Massachusetts, priority 2009, dated 2014).
Values joined by “and” are separate entries in the source; they are usually repeats but may differ in a detail not shown here. Identical values can stand only once.

Experiments:
[1] = tested on: U87NS; test: Neurosphere formation / recovery / secondary neurosphere assay, U87NS; format: cell-based, human
Protocol: (§1) The effect of chemotherapy on neurosphere formation was assayed in glioma neurosphere cultures. Cultures are treated with a single dose of the agent, e.g., TMZ and multiple doses of a GSI, e.g., DAPT to inhibit the Notch pathway. After the Treatment phase, the number of initial spheres (counted about 7 days after TMZ treatment) represents the number of proliferating CSC/progenitors (FIG. 1 for schematic). Recovery (counted 14 days after TMZ treatment) includes enlargement of the initial spheres and new spheres formed when CSC/progenitor cells quiescent as a result of chemotherapy resume cell proliferation. […] The cells used included U87NS, a neurosphere culture converted to neurosphere growth in defined medium from U87MG (an old Swedish line that is grown in conventional serum conditions); GS7-2, GS8-26 and GS6-22 primary neurosphere cultures that were obtained from grade IV GBM patient tumor samples and AS5-15, which was obtained from a grade III anaplastic astrocytoma.
(§2) To determine the effects of TMZ plus DAPT neurospheres, cells were plated as previously described (Mihaliak et al., Cancer Letts. 296, 168-177 (2010)). Immediately after plating, cells were treated with DMSO, DAPT-only, LY411,575 (LY)-only TMZ-only, TMZ+DAPT or TMZ+LY. The initial neurospheres were counted on day 7 for the converted cell lines and on day 10 for the slower growing primary lines. Neurosphere recovery was measured on day 14 or 20. The neurospheres were dissociated, re-plated and secondary neurosphere formation was measured on day 21 or 30.
(§3) Neurosphere cultures were dissociated to single cell suspensions by pH dissociation followed by filtration through 40 μm screens. For the neurosphere assay, 3,000 cells/ml of defined medium were seeded in 6-well plates. Immediately after plating, cells were treated with DMSO (Research Organics, Cleveland, Ohio) carrier control, TMZ-only, DAPT-only, or TMZ+DAPT. Additional DAPT was added on days 2 and 4. Neurospheres consisting of 10 or more cells were counted under a light microscope on day 7 for the converted cell lines. Primary lines have a slightly longer doubling time and were counted on day 10. After counting the neurospheres from the initial treatment, 2 ml of fresh defined medium was added to each well. DAPT was also added once more to the DAPT-only and TMZ+DAPT samples, and the cells were incubated for an additional 7 or 10 days. Neurospheres from the recovery period were counted on day 14 or day 20. To analyze secondary neurosphere formation, cells were collected, pelleted and dissociated to a single cell suspension by the pH method. Cells from each well were re-seeded into 6-well plates with 2 ml of defined medium. The number of secondary neurospheres formed by converted cell lines and primary cultures were counted on day 21 or day 30, respectively. All recovery assays were repeated with a minimum of 6 replicate sets of time points.
(§4) For the samples labeled “PRE-treat”, a single dose of DAPT was administered when the cells were plated, and then TMZ was added to the medium 24 hours later. For the “CO-treat” samples, single doses of TMZ and DART were added simultaneously when the cells were plated. Finally, samples labeled “POST-treat” were treated with TMZ, and then DAPT was added 24 hours later.

[2] = tested on: GS7-2; test: Neurosphere formation / recovery / secondary neurosphere assay, GS7-2; format: cell-based, human
Protocol: as §1, §2, §3, §4

[3] = tested on: U373NS; test: Ex vivo treated cells, subcutaneous xenograft tumor initiation, U373NS; format: in vivo, nude mice; details: 3 × 10^6 live cells injected, TMZ 200 μM, DAPT 5 μM
Protocol: (§5) U87NS and U373NS neurospheres were dissociated and 2.5×10^4 cells/ml were plated in defined media and treated with DMSO, TMZ-only (200 μM), DAPT-only (1 μM or 5 μM), or TMZ+DAPT as described for recovery assays. After 7 days, 3×10^6 live cells were counted using trypan blue and re-suspended in 100 μl PBS. Cells were subcutaneously injected into the flanks of nude mice. Mice were monitored for tumor formation for up to 120 days post-injection and euthanized when tumors reached volumes of 1.5 to 2 cm^3.
as §5, with “U373NS” for “U87NS and U373NS”, “(FIG. 8B and Table 1).” for “as described for recovery assays.”, “cm^3. The control DMSO cells formed palpable tumors in an average of 15 days for 7/7 xenografts, and DAPT-only treated cells formed tumors in an average of 16 days for 7/7 xenografts. […] Palpable tumors formed for 6/7 TMZ-treated U373NS xenografts in an average of 43 days. […] Only 1/7 mice formed a tumor in the TMZ+DAPT U373NS xenografts with an extended latency of 96 days.” for “cm^3.”

[4] = tested on: U87NS cells; test: Ex vivo treated cells, subcutaneous xenograft tumor initiation, U87NS; format: in vivo, nude mice
Protocol: U87NS cells were treated in vitro as follows. The cells were dissociated and 2.5×10^4 cells/ml were plated defined media and treated with DMSO, TMZ-only (200 μM), DAPT-only (1 μM or 5 μM), or TMZ+DAPT as described for recovery assays (FIG. 8A and Table 1). After 7 days, 2.5×10^5 live cells were counted using trypan blue and re-suspended in 100 μl PBS and subcutaneously injected into nude mice. Mice were monitored for tumor formation for up to 120 days post-injection and euthanized when tumors reached volumes of 1.5 to 2 cm3. Tumor initiation was observed when a palpable tumor formed. […] Impressively, none of the mice injected with TMZ+DAPT treated cells (0/7 mice) formed tumors, even after 90 days. When a higher number of live U87NS cells (3×10^6) were injected, we saw a similar trend (Table 1). Mice with 3×10^6 cells for U87NS DMSO (2/2 mice) and DAPT-only (2/2 mice) xenografts developed palpable tumors at 3 and 4 days, respectively, and 3/4 mice formed tumors in TMZ-only treated cells with an average latency of 25 days. With this higher number of cells injected, U87NS TMZ+DAPT xenografts formed tumors in only 1/4 mice with a longer latency of 43 days.
as §5

[5] = tested on: U373NS; test: Neurosphere formation / recovery / secondary neurosphere assay, U373NS; format: cell-based, human
Protocol: as §1, §2, §3

[6] = 10 μM DAPT alone, counted day 7
[7] = low concentrations (1-5 μM) DAPT-only, day 7
[8] = 2.5 × 10^5 live cells injected, TMZ 200 μM, DAPT 1 μM
[9] = secondary neurospheres divided by recovery neurospheres

C[C@H](NC(=O)Cc1cc(F)cc(F)c1)C(=O)N[C@H](C(=O)OC(C)(C)C)c1ccccc1 [DAPT, N-[N-(3,5-difluorophenacetyl)-L-alanyl]-(S)-phenylglycine t-butyl ester]
decrease of neurosphere formation compared to DMSO controls [1, 6]: 41%
inhibition of neurosphere formation [1, 7]: minimal inhibition
decrease of neurosphere formation compared to DMSO controls ([2]; 10 μM DAPT alone, counted day 10): 49%
inhibition of neurosphere formation ([2]; low concentrations (1-5 μM) DAPT-only, day 10): minimal inhibition
Ex vivo Treated Xenograft Average Latency [3]: 16 days
Ex vivo Treated Xenograft Incidence [3]: 7/7
Ex vivo Treated Xenograft Average Latency [4, 8]: 14 days
Ex vivo Treated Xenograft Incidence [4, 8]: 7/7
Ex vivo Treated Xenograft Average Latency ([4]; 3 × 10^6 live cells injected): 4 days
Ex vivo Treated Xenograft Incidence ([4]; 3 × 10^6 live cells injected): 2/2
decrease of neurosphere formation compared to DMSO controls [5, 6]: 39%
inhibition of neurosphere formation [5, 7]: minimal inhibition

Cn1nnc2c(C(N)=O)ncn2c1=O [TMZ, temozolomide]
secondary neurosphere formation relative to DAPT POST-treatment ([1]; TMZ-only treatment, P<0.001): 5.7 fold
recovery: increase in the number of neurospheres ([1]; day 14 relative to day 7, TMZ 200 μM, DAPT 1 μM): 2 fold
secondary neurosphere formation, TMZ-only treated culture relative to TMZ+DAPT treated culture ([1]; day 21, P<0.0001): 36 fold
average number of cells per neurosphere capable of self-renewal [1, 9]: 8 cells per neurosphere
secondary neurosphere formation relative to DAPT POST-treatment ([2]; TMZ-only treatment, P<0.0001): 85.7 fold
recovery: increase in the number of neurospheres ([2]; day 20 relative to day 10, DAPT 1 μM): 1.8 fold
secondary neurosphere formation, TMZ-only treated culture relative to TMZ+DAPT treated culture ([2]; day 30, P<0.001): 45 fold
average number of cells per neurosphere capable of self-renewal [2, 9]: 38 cells per neurosphere
Ex vivo Treated Xenograft Average Latency [3]: 43 days and 45 days
Ex vivo Treated Xenograft Incidence [3]: 6/7
Ex vivo Treated Xenograft Average Latency [4, 8]: 32 days
Ex vivo Treated Xenograft Incidence [4, 8]: 6/7
Ex vivo Treated Xenograft Average Latency ([4]; 3 × 10^6 live cells injected): 25 days
Ex vivo Treated Xenograft Incidence ([4]; 3 × 10^6 live cells injected): 3/4
recovery: increase in the number of neurospheres ([5]; day 14 relative to day 7, TMZ 200 μM, DAPT 5 μM): 1.5 fold
secondary neurosphere formation, TMZ-only treated culture relative to TMZ+DAPT treated culture ([5]; day 21, P<0.001): 23 fold
average number of cells per neurosphere capable of self-renewal [5, 9]: 3 cells per neurosphere
